According to patent publication US20200246284A1 (Academia Sinica, priority 2015, published 2020):
Several values for one entry are separate records, joined by “and”; a condition that tells them apart may be missing. Equal values may be shown once. Read-outs that look alike come from different tables or passages of the source.

Columns and labels:
[1] = test system: Caco-2 cell monolayers; assay: Caco-2 permeability; format: in vitro ADME, human
From the text: (§1) The Caco-2 permeability assay is considered to be the industry gold standard for in vitro prediction of in vivo human intestinal permeability and bioavailability of orally administered drugs. The Caco-2 permeability assay uses an established method for predicting the absorption of therapeutic compounds across the GIT by measuring the rate of transport across a contiguous Caco-2 cell monolayer. […] The Caco-2 assay measures the passage of a test compound from a donor chamber into an acceptor chamber through a porous membrane on which a confluent Caco-2 monolayer forms a cellular barrier.

[2] = Caco-2 permeability; format: in vitro ADME, human; conditions: human, Caco-2, 10 μM
From the text: as §1

[3] = test system: SUDHL-5; assay: Cytotoxicity DLBCL; conditions: read-out: cytotoxicity IC50; SUDHL-5, DLBCL GCB
[4] = test system: DLBCL (GBC) cell lines; assay: Combination of BO-1055 with PUH71, TT46, bortezomib, doxorubicin (Table 25); format: cell-based; conditions: Homo sapiens
[5] = test system: NECB1; assay: Combination with BO-1055, MCL (Tables 28, 29); format: cell-based, human; conditions: read-out: IC50 single drug
[6] = test system: NECB-1; assay: Cytotoxicity mantle cell lymphoma; conditions: read-out: cytotoxicity IC50; NECB-1, mantle cell lymphoma
Procedure: (§2) After 72 hours, the cultures were pulsed with Alamar Blue overnight, and the fluorescent intensity of resulted cultures was measured by a Synergy H1 plate-reader (BioTek Inc).

[7] = test system: Granta; assay: Combination with BO-1055, MCL (Tables 28, 29); format: cell-based, human; conditions: read-out: IC50 single drug
[8] = test system: CB CD34+ cells (+FCS); assay: Cytotoxicity normal tissue; format: cell-based, human
[9] = test system: nude mice bearing prostate 22Rv/HL2; assay: Complete blood count, 22Rv/HL2 xenograft mice; conditions: 24 hrs after last treatment
[10] = Plasma protein binding, equilibrium dialysis; format: in vitro ADME; conditions: rat plasma, read-out: % bound (converted)
From the text: In drug discovery, the information on drug-plasma protein binding is valuable in evaluating and understanding, the absorption, distribution, metabolism and excretion (ADME)-related properties and the pharmacokinetic profile of drug candidates.

[11] = Pharmacokinetics, IV bolus 10 mg/kg; format: in vivo, Sprague-Dawley rats; conditions: rat
Procedure: Serial blood samples were collected from the jugular vein at 0, 5, 10, 15, 30, 45, 60, 90, 120, 150, 180, 240, 300, 360 min after dosing. […] All pharmacokinetic analysis was carried out using the WinNonlin Standard Edition Version 1.0 (Scientific Consulting Inc., Apex, NC, USA).

[12] = test system: LY1; conditions: human
Procedure: as §2

[13] = test system: AML-2 CD34+ cells in NSG mice; assay: Primary MLL-AF9+ pediatric AML (AML-2) xenograft; format: in vivo, mouse; conditions: 30 mg/kg Q10D2x from day 7
[14] = in vitro; conditions: rat, microsomes
[15] = test system: HL-1 cardiomyocyte; assay: Cytotoxicity normal tissue 72 hr; format: cell-based; conditions: HL-1, 72 hr
[16] = test system: SK-MES-1; format: cell-based, human
[17] = test system: H520; format: cell-based, human
[18] = test system: FTE-hTERT Fallopian epithelium; assay: Cytotoxicity normal tissue 72 hr; format: cell-based, human
[19] = test system: H1395; format: cell-based, human
[20] = test system: H526; assay: Cytotoxicity SCLC 72 hr alamar blue; format: cell-based, human
[21] = test system: H596; format: cell-based, human
[22] = test system: BMMSC BM mesenchyme; assay: Cytotoxicity normal tissue 72 hr; format: cell-based, human
[23] = test system: H125; format: cell-based, human
[24] = test system: CL100T1; format: cell-based, human
[25] = test system: H525; format: cell-based, human
[26] = test system: A549; format: cell-based, human
[27] = test system: HS578 breast epithelium; assay: Cytotoxicity normal tissue 72 hr; format: cell-based, human
[28] = test system: PC9/gefb4; format: cell-based, human
[29] = test system: PC9; format: cell-based, human
[30] = test system: H146; assay: Cytotoxicity SCLC 72 hr alamar blue; format: cell-based, human
[31] = test system: H889; assay: Cytotoxicity SCLC 72 hr alamar blue; format: cell-based, human; conditions: read-out: IC50
[32] = test system: H719; assay: Cytotoxicity SCLC 72 hr alamar blue; format: cell-based, human
[33] = test system: H249; assay: Cytotoxicity SCLC 72 hr alamar blue; format: cell-based, human
[34] = male, Sprague-Dawley, plasma, IV 10 mg/kg, n=5
[35] = male, Sprague-Dawley, plasma, iv, 10 mg/kg, n=5

With `CN(C)CCNC(=O)c1cccc(NC(=O)Nc2ccc(N(CCCl)CCCl)cc2)c1` [BO-1055, Ureidomustine] the “Papp (B to A)” value ([1]; 10 μM) was “Papp (B to A) = 7.5 × 10−6 cm/sec”, the mass balance ([1]; A→B and B→A directions) was less than 50% and the “Papp coefficient A→B” value ([1]; Caco-2) was “not detected”. The Papp B→A at 10 μM [2] was 7.05 ×10⁻⁶ cm/s, the IC50 [3] was 4.14 µM and the IC50 ([4]; KARPAS-422, read-out: IC50 single agent) was 5.85 µM. The IC50 ([4]; OCI-LY19, read-out: IC50 single agent) was 0.287 µM, the IC50 ([4]; OCI-Ly8, read-out: IC50 single agent) was 0.224 µM and the IC50 ([4]; OCI-Ly18, read-out: IC50 single agent) was 0.608 µM. For the same molecule, the IC50 ([4]; SU-DHL-4, read-out: IC50 single agent) was 1.95 µM, the IC50 ([4]; SU-DHL-5, read-out: IC50 single agent) was 4.14 µM and the IC50 ([4]; SU-DHL-6, read-out: IC50 single agent) was 5.93 µM. For the same molecule, the IC50 ([4]; Toledo, read-out: IC50 single agent) was 8.95 µM, the IC50 ([4]; read-out: IC50 single agent) was 3.19 µM and the IC50 [5] was 7.42 µM and 7.78 µM and 8.52 µM. For the same molecule, the IC50 [6] was 7.71 µM and 8.41 µM, the IC50 [7] was 5.26 µM and 5.5 µM and 6.55 µM and the IC50 ([8]; Homo sapiens, CB CD34+ cells, +FCS) was greater than 10 µM. The IC50 ([8]; Homo sapiens, normal CB CD34+, FBS/FCS or serum free) was 9.9 to 10.2 µM, the IC50 ([8]; normal CB CD34+, FBS/FCS or serum free) was 8.5 to 10.5 µM and the BASO [9] was 0.06 10^3/μL. The EOS [9] was 0.14 10^3/μL, the LYM [9] was 1.52 10^3/μL and the MONO [9] was 0.08 10^3/μL. For the same molecule, the NEU [9] was 0.83 10^3/μL, the PLT [9] was 195 10^3/μL and the RBC [9] was 9.52 10^6/μL. The WBC [9] was 2.98 10^3/μL, the fraction unbound at 2 h, 20 μM ([10]; 2 h) was 0.0032 and the fraction unbound at 4 h, 20 μM ([10]; 4 h) was 0.0031. For the same molecule, the fraction unbound at 6 h, 20 μM ([10]; 6 h) was 0.0799, the fraction unbound at 24 h, 20 μM ([10]; 24 h) was 0.248 and the tissue distribution ([11]; IV 10 mg/kg) was “accumulated mainly in the kidney, with only a limited amount detected in the brain”. For the same molecule, the Cl ([11]; IV 10 mg/kg, n=5, 10 mg/kg) was 39.2 ± 10.6 mL/min per kg, the AUC [11, 34] was 4450 ng·h/mL and the Cmax [11, 34] was 13400 ± 6170 ng/mL. It also gave a clearance [11, 35] of 39.4 ± 10.6 mL/min/kg, a half-life [11, 35] of 46.2 min and an IC50 [12] of 3.86 µM. For the same molecule, the “survival longer than control” value [13] was 48 days and the half-life [14] was 29.7 min.
`N.N.[Cl][Pt][Cl]` [Cisplatin] showed an IC50 [15] of 47 µM, an IC50 [16] of no less than 50 µM and an IC50 [17] of 9.1 µM. The IC50 [18] was 100 µM, the IC50 [19] was no less than 15 µM and the IC50 [20] was 2.85 µM. It also gave an IC50 [21] of no less than 10 µM, an IC50 [22] of 20 µM and an IC50 [23] of 1.5 µM. The IC50 [24] was 2.8 µM, the IC50 [25] was 7.74 µM and the IC50 [26] was no less than 30 µM. For the same molecule, the IC50 [27] was greater than 100 µM, the IC50 [28] was no less than 35 µM and the IC50 [29] was 8.12 µM. It also gave an IC50 [30] of 3.77 µM, an IC50 [31] of 0.41 µM and an IC50 [32] of 1.12 µM. For the same molecule, the IC50 [33] was 1.51 µM.
